# Key:
# Rattus norvegicus = settings: acute; oral; mortality
# Bibionidae = settings: chronic/long-term; duration: 28 days
# Daphnia magna = settings: chronic/long-term; duration: 21 days; reproduction
# Oncorhynchus mykiss = settings: acute; duration: 96 hours; mortality
# Apis mellifera = settings: acute, duration: 48 hours, mortality
# Pimephales promelas = settings: chronic/long-term; duration: 40 days; time to hatch
# Tagia sp. = settings: acute; duration: 14 days; mortality
# Canidae = settings: oral, Dog Other, organ weight
# Colinus virginianus = settings: acute, oral, mortality
# Typhlodromus pyri = test: LR50; higher = less toxic; settings: chronic/long-term; duration: 7 days; mortality
# Aphidius rhopalosiphi = test: LR50; higher = less toxic; settings: chronic/long-term; duration: 7 days; mortality
structure (smiles),measurement,setting,value
COc1cc(OC)n2nc(NS(=O)(=O)c3c(C(F)(F)F)ccnc3OC)nc2n1 [Pyroxsulam],LD50,Rattus norvegicus,> 2000 mg/kg-day
same,NOEC,Bibionidae,100 mg/L
same,NOEC,Daphnia magna,10.4 mg/L
same,LC50,Oncorhynchus mykiss,5.9 µg/mL
same,LD50,Apis mellifera; dermal,> 100 µg/piece
same,LD50,"Apis mellifera; oral, unspecified",> 107 µg/piece
same,NOEC,Pimephales promelas,10.1 mg/L
same,LC50,Tagia sp.,> 10000 mg/kg
same,LD50,"Anas platyrhynchos; acute, oral, unspecified, mortality",> 2000 mg/kg-day
same,NOAEL,Anas platyrhynchos; reproductive,46.3 mg/kg-day
same,NOAEL,"Canidae; chronic, duration: 1 years",89 mg/kg-day
same,NOAEL,"Canidae; subchronic, duration: 90 days",100 mg/kg-day
same,LC50,Colinus virginianus; diet,> 988 mg/kg-day
same,LD50,Colinus virginianus,> 2000 mg/kg-day
same,LR50,Typhlodromus pyri,> 37.5 g/ha
same,LR50,Aphidius rhopalosiphi,> 37.5 g/ha

# From EPA's ToxValDB 9.5 (doi:10.2903/j.efsa.2013.3182)
